# Measured values: US10864273B2, “Thiobase compounds for photodynamic therapy” (CASE WESTERN RESERVE UNIVERSITY, priority 2015, dated 2020)
# Where two headings read alike, the source gives them in different places.
# Tests used:
# [1] = Femtosecond broadband transient absorption spectroscopy of the thiothymine series (intersystem crossing, triplet yield); assay type: physicochemical; conditions: for τISC intersystem crossing lifetime: probe 600 nm
# Method: Femtosecond transient absorption spectroscopy was performed using a Ti— Sapphire regenerative amplifier laser system (Libra-HE, Coherent, Inc.; 800 nm, 100 fs, 4.0 W at 1 kHz). 2.6 W of the 800 nm beam were used to pump an optical parametric amplifier (TOPAS, Quantronix/Light Conversion) to generate the excitation beam at selected wavelengths of 320, 335, and 360 nm. Contributions to the excitation beam from other wavelengths and polarizations were removed by a reflective wavelength filter (λ-filter) and a Glan-Taylor polarizer, respectively, and the polarization was randomized using a depolarizing plate in order to prevent rotational effects from contributing to the dynamics, as described in details elsewhere.
# A Helios spectrometer (Ultrafast Systems, LLC.) was used for pump-probe measurements. A fraction of the fundamental (800 nm) beam from the Libra-HE was used to generate white light continuum (WLC). The Helios spectrometer uses an optical delay line with a maximum delay of ˜3 ns for the 800 nm beam, which was used to pump a continuously-moving 2 mm CaF2 plate for generation of the WLC broadband probe pulse covering the spectral range from ˜320-700 nm. The probe light was then passed through a 730 nm low-pass dichroic optical filter, so as to block residual fundamental beam and to avoid saturating the complementary metal-oxide-semiconductor (CMOS) detectors. The probe pulse was then split into two beams, both of which were recollimated and focused into the optical fibers leading to their respective CMOS detectors. In this setup, one of the beams serves as reference, while the other is used to probe the sample of interest. A synchronized chopper wheel was used to block every other pump pulse, such that the difference in absorption between two consecutive measurements gives the transient spectrum. The excitation beam was attenuated to 1 μJ/pulse at the sample using a neutral density optical filter before entering the spectrometer. The excitation pulse was focused to a beam diameter three times larger than that of the probe beam at the sample position. Detection time windows of 20 and 200 ps were used in this work.
# All solutions were prepared using pH 7.4 aqueous phosphate buffer, with a total phosphate concentration of 16 mM. The solution was continuously stirred in a 2 mm optical path length quartz cell (Starna Cells, Inc.) using a Teflon-coated magnetic stirring bar so as to bring fresh sample to the pump-probe region for each measurement. The solution in the cuvette was replaced with a fresh sample, from the same stock solution, every 5-7 scans, so that all scans had no more than 5% decrease in absorbance at the lowest-energy absorption-band maximum as determined by steady-state absorption spectroscopy.
# All broadband transient absorption data were corrected for group velocity dispersion (GVD) of the WLC using a home-made LabView program (National Instruments, Inc.) as previously described. 3 Analysis of transient absorption kinetics was performed in Igor Pro 6.32A (WaveMetrics, Inc.) using the target analysis method, as described previously, and a sequential kinetic model convoluted with an instrument response function of ˜200 fs (FWHM). The instrument response was determined from the coherence signal of neat methanol generated at the sample cell. Global fitting analysis was performed using 15 to 30 representative kinetic traces covering the full range of probe wavelengths. At least three independent datasets (i.e., recorded on three different days) were used in the analysis and all uncertainties are reported as twice the standard deviation of the average lifetime. Decay associated spectra shown in FIG. 7A were extracted from the global fitting analysis of the transient decay traces taken every third probe wavelength across the entire WLC range.
# [2] = Singlet oxygen quantum yield by phosphorescence at 1270 nm, thiothymine series; assay type: physicochemical; conditions: for ΦΔ singlet oxygen quantum yield: O2-saturated acetonitrile solution, 355 nm excitation, phenalenone standard
# Method: Singlet oxygen phosphorescence measurements were performed using a modified Fluorolog-3 spectrometer (HORIBA, Jobin Yvon) in conjunction with a NIR sensitive photomultiplier tube (H10330A-45, Hamamatsu). A 450 W Xe lamp was used for steady state excitation to record singlet oxygen phosphorescence spectra and a Spectra Physics GCR-150-30 Nd:YAG laser (355 nm, 7 ns pulse width) was used for pulsed excitation to collect singlet oxygen phosphorescence decay traces at 1270 nm, which were stored on a digital oscilloscope (TDS 360, Tektronics).
# O2-saturated acetonitrile solutions of the thiobases and standard (phenalenone) with matching absorbance at 355 nm (O.D.=0.3 at 1 cm optical path length) were prepared. The measurements were performed in a 1×1 cm quartz cell. Singlet oxygen quantum yields were determined from the phosphorescence intensity at 1270 nm at the end of the laser pulse using phenalenone as standard (ΦΔ=0.98).
# While ultrafast internal conversion to the ground state and the low triplet yield in thymidine provide the nucleobase with its high degree of photostability, the near-unity triplet yields in the thiothymine series account for their potent photo-sensitization properties. We have obtained evidence for significant photoreactivity of these triplet states by performing time-resolved energy transfer experiments to molecular oxygen, thus generating singlet oxygen, as monitored by its characteristic phosphorescence at 1270 nm (FIG. 3 and FIG. 4). The singlet oxygen quantum yields for 4tThd and 2,4dtThy were determined using phenalenone as a standard (ΦΔ=0.98) and are summarized in Table 1. It should be remarked that quantification of the singlet oxygen yield is one of the primary methods used to determine the efficacy of a prospective photosensitizer for phototherapeutic applications. To our knowledge, this is the first work to report the singlet oxygen yield of 2,4dtThy. […] Consistent with the spectroscopic analysis herein, the singlet oxygen yield of 2tThy is smaller than those of 4tThd and 2,4dtThy.
# [3] = Steady-state absorption spectroscopy, thymine series; assay type: physicochemical; conditions: phosphate buffer solution at pH 7.4
# Excerpt: 2-thiothymine (2tThy, 98% purity) was obtained from AK Scientific, 4-thiothymidine (4tThd, 99% purity) was obtained from Carbosynth Ltd., and 2-thiothymidine (2tThd) and 2,4-dithiothymine (2,4dtThy) were obtained from Sigma Aldrich. All compounds were used as received. The purity of these compounds was ensured by using fluorescence spectroscopy and by comparison with the published absorption maxima and their corresponding extinction coefficients. Phosphate buffer solutions were freshly prepared using 0.12 g of sodium dihydrogen phosphate and 0.089 g of disodium hydrogen phosphate dissolved in 100 mL of ultrapure water and adjusted to pH 7.4 using a 2 M NaOH solution. Steady-state absorption spectra were measured using a Cary 100 Bio spectrometer. All absorption spectra were corrected for the solvent background by subtraction of the absorption of the solvent.
# Specifically, sulfur substitution of the C2 carbonyl in thymine results in about a 10 nm redshift in the absorption maximum, whereas substitution at the C4 position results in a redshift of about 70 nm. Remarkably, double-substitution results in about a 100 nm redshift of the lowest-energy absorption band of thymidine (ΔE=9905 cm^−1), without an appreciable change in the magnitude of the extinction coefficient at the corresponding wavelengths (1×10^4 M^−1 cm^−1). Replacement of an oxygen atom by a sulfur atom in a carbonyl bond is expected to shift the absorption spectrum to the red because the thiocarbonyl is weaker than the carbonyl bond and the excited electronic states in thiocarbonyl compounds are typically found at lower energies. However, the difference in bond strengths between a carbonyl and thiocarbonyl bond cannot solely explain the large spectral shift observed between 2tThy/2tThd and 4tThd. Furthermore, the redshift in the absorption spectrum of 2,4dtThy cannot simply be expressed as a linear combination of the absorption spectra of the 2tThy/2tThd and 4tThd derivatives. […] Glycosylation of 2tThy, generating 2tThd, results in a 2 nm redshift in the absorption maximum and about 2-fold increase in the molar absorptivity coefficients (FIG. 1B). The same effect has been previously documented in the natural bases and in other thiobases. Therefore, glycosylation of 2,4dtThy to form 2,4-dithiothymidine is expected to redshift the absorption spectrum slightly and to increase the molar absorptivity coefficients.
# [4] = Estimated maximum UVA treatment depth in tissue from absorption cutoff and penetration depth curve; conditions: cutoff ε=1000 M^−1 cm^−1
# Excerpt: Longer wavelengths of light are able to penetrate deeper into tissues due to less scattering and reduced absorption by natural biomolecules (FIG. 5). Therefore, the redshifted absorption of 2,4dtThy as compared to 4tThd opens up the possibility for it to be effectively used as a photosensitizer in deeper tissue UVA-activated therapies. The maximum treatment depth for these two compounds was estimated by defining an arbitrary absorption cutoff of ε=1000 M^−1 cm^−1 (i.e., 371 nm for 4tThd and 395 nm for 2,4dtThy; FIG. 5). […] In order to account for this, the area under the penetration depth curve (FIG. 5) was integrated up to the respective absorption cutoff for each compound. Using this integration method the total increase in treatment depth of 2,4dtThy relative to 4tThd was determined to be about 67%. This increase likely serves as an upper bound limit for the actual relative increase because the molar absorptivity coefficients of the compounds will no doubt play a role. However, because the absorption of radiation at a given wavelength is not only dependent on a photosensitizer's molar absorptivity coefficients but also on its concentration in the tissue, our best estimation is that 2,4dtThy could facilitate UVA-activated treatment in tissues 23 to 67% deeper than those that can be effectively treated by 4tThd.
# [5] = pH 7.4 phosphate buffer solution; previously reported values; cited from earlier work
# [6] = cited from earlier work
# cancerous cell lines = conditions: in conjunction with a low dose of UVA radiation; in vitro; cited from earlier work
# bladder cancer = conditions: in conjunction with a low dose of UVA radiation; animal models; cited from earlier work
# 3D human skin models = conditions: in conjunction with a low dose of UVA radiation; lower epidermis of 3D human skin models; cited from earlier work
# [7] = O2-saturated acetonitrile solution; previously measured / standard value; cited from earlier work
# [8] = O2-saturated acetonitrile; literature / standard value; cited from earlier work
# [9] = pH 7.4 phosphate buffer solution
triplet yield [1],"ΦT triplet quantum yield [1, 9]",maximum of lowest-energy absorption band [3] [nm],ε at maximum of lowest-energy absorption band [3],wavelength at arbitrary absorption cutoff [4] [nm],SMILES,increase in rate of intersystem crossing going from 2-thiothymine [1] [fold],intersystem crossing rate increase relative to Thd [1] [fold],"τISC intersystem crossing lifetime [1, 9] [fs]",1O2 yield lower than that of the corresponding thiouracil derivative [2] [%],singlet oxygen yield [2] [%],ΦΔ singlet oxygen quantum yield [2],ΦT triplet quantum yield [5],"triplet-triplet extinction coefficient ([6]; at 520 nm, previously reported, own determination in agreement) [M⁻¹ cm⁻¹]",reported triplet yield of the reference compound ([6]; reference for relative actinometry),killing of cancerous cell lines (cancerous cell lines),treatment of bladder cancer (bladder cancer),induction of cytotoxic lesions (3D human skin models),ΦΔ singlet oxygen quantum yield [7],ΦΔ singlet oxygen quantum yield [8]
approximately 90%,>0.9,363,≈ 9.7×10^3 M^−1 cm^−1,395,"Cc1c[nH]c(=S)[nH]c1=S [2,4dtThy, 2,4-dithiothymine]",3.5,4.2,180±40,6,~50,0.46 ± 0.02,–,–,–,–,–,–,–,–
–,–,–,–,371,"Cc1cn([C@H]2C[C@H](O)[C@@H](CO)O2)c(=O)[nH]c1=S [4tThd, 4-thiothymidine]",–,3.2,240 ± 20,14,–,0.42 ± 0.02,0.85 ± 0.15,2500 ± 700,1.0±0.1,effectively kill cancerous cell lines in vitro,treat bladder cancer in animal models,induce cytotoxic lesions in the lower epidermis of 3D human skin models,–,–
–,–,–,–,–,O=C1C=Cc2cccc3cccc1c23 [phenalenone],–,–,–,–,–,–,–,–,–,–,–,–,0.98,0.98
